The source of these data is US20230337677A1, “ARYL AND PYRIDYL AMIDE PESTICIDES AND COMPOSITIONS THEREOF” (University of Florida Research Foundation, Incorporated, priority 2019, published 2023).

Structures are written as SMILES. Where two headings read alike, the source gives them in different places.

In series [1] the test system is Anopheles gambiae G3 sensitive strain. Kind of series: Topical toxicity (24 hour mortality), An. gambiae G3. It is filed as in vivo. The gist of the method: (§1)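 Females aged 3–6 days received 200 nL of compound in ethanol topically on the thorax, 10 per concentration per replicate, and were kept at 28° C with sugar water.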
Series [2] concerns Aedes aegypti mosquitoes, insecticide-susceptible Orlando strain. The settings on record: for 24h % mortality: Screened at μg/cm^2.
For series [3], the system named is Anopheles gambiae Akron kdr (Akdr) strain, resistant to pyrethroids. In words: Topical toxicity (24 hour mortality), An. gambiae Akdr. It is filed as in vivo. The gist of the method: as §1
In series [4] the test system is Aedes aegypti mosquitoes, pyrethroid-resistant Puerto Rico strain. In words: Vapor toxicity (24 h lethality under constant exposure in glass tubes), resistant strain. Conditions: LC50, with resistance ratio (PR).
For series [5], the system named is Aedes aegypti mosquitoes, insecticide-susceptible Orlando strain. In kind it is in vivo. Conditions: for 1 h % Repellency, 100 μg/cm^2: screened at 100 μg/cm^2, strain not given; for 1 h Repellency EC50, μg/cm^2: (OR); for 1h % repellency: Screened at μg/cm^2. The gist of the method: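 Sixteen female mosquitoes per glass tube facing netting-shielded filter paper treated with acetone solutions (30-0.01 μg/ml; screen at 100 μg/cm^2), no contact. Proportion on treated side scored up to 60 min, then flight-out checked 30 min; mortality after 24 hr constant exposure.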

Series [6] deals with Aedes aegypti strain Orlando (sensitive). In words: Topical toxicity (24 hour mortality), Ae. aegypti Orlando. In kind it is in vivo. The gist of the method:
as §1

Series [7] concerns Aedes aegypti mosquitoes, insecticide-susceptible Orlando strain. In words: whole plant or invertebrate. Conditions: 24 h, read-out: 24 h % Mortality, 100 μg/cm^2.
The test system of series [8] is Aedes aegypti strain Puerto Rico (PR, resistant to permethrin). In words: Topical toxicity (24 hour mortality), Ae. aegypti Puerto Rico. In kind it is in vivo. The protocol: The Aedes aegypti strains Orlando (sensitive) as well as the Puerto Rico (PR, resistant to permethrin) were used. The Anopheles gambiae (G3 sensitive strain, as well as Akron kdr (Akdr) strain, resistant to pyrethroids were also assessed. The larvae were provided by the USDA, Gainesville Fl, and raised in a pan with tap water maintained at 28° C. Larvae were fed a ground liver and yeast mixture, and pupae were placed in emergence cages. Adults were held at 28° C. and provided with cotton balls soaked in 10% sugar water for rearing and for all bioassays.
Female adults from 3 to 6 days were used for the experiments. The drug was dissolved in ethanol and then applied with a micro-applicator on the thorax, between the legs: 200 nL of drug per female mosquito, with different concentrations of the drug; 10 mosquitos were treated together per concentration per replicate, and put together in a small container with free access to sweet water. Mortality, i.e. no visible movement, was assessed 24 hours after treatment. Every compound was assessed on at least 3 different cohorts of mosquitoes, and the LD50 values and slopes were determined with Probit analysis, corrected with Abbott's formula.

Series [9] concerns Aedes aegypti mosquitoes, pyrethroid-resistant Puerto Rico strain. In words: Vapor repellency glass tube assay (1 h), resistant strain. It is filed as in vivo. The settings on record: with resistance ratio (PR).
For series [10] the following is noted: Table 3B; Hammett substitution constant based on the ionization of benzoic acids; cited from earlier work.
A short description of series [11]: Mammalian toxicity, oral gavage. In kind it is in vivo. The settings on record: ICR, in vivo; Table 3A; oral gavage; preliminary mouse screening. The method, then:
(§2) Mice ([…] strain ICR, body weight between 20 and 26 g, 35 days old+/−4 days), were force fed with compounds solubilized in olive oil to a volume of 10 μL per gram of mouse via 1 mL disposable syringes attached to 22 gauge metal canulas directly in the stomach following the Institutional Animal Care and Use Committee (IACUC) standard procedure. One hour after gavage, mice were returned to food and water access ad libitum. Dose tested ranged from 60 up to 600 mg/kg of mice, following the method recommended by the US EPA to reduce the number of mice used to determine the LD50 doses. Mice were monitored after drug administration during the first hour, and then every 4 hours up to 24 hours. The surviving mice were humanely sacrificed. Any mice displaying a high state of pain/distress would also be considered as not surviving the treatment and were sacrificed before the end of the investigation. The […] was determined using the AOT425StatPgm software; the study was registered and approved by IACUC under number 201810416.

A further series deals with Mice (inbred strain ICR). In words: Mammalian toxicity, oral gavage. In kind it is in vivo. Conditions: Table 5; preliminary mouse screening. The method, then:
as §2

`O=C(Nc1cc(Cl)nc(Cl)c1)C(F)(F)C(F)(F)C(F)(F)F` [GMR031]: in [1] (topical application, 24 h mortality, female adults, susceptible strain G3), the “An. gambiae G3 LD50” value came out at 8.0 ng/mg. Moreover, in series [2] (24 h, LC50 (OR)), the “24 h LC50, μg/cm^2” value is 25 μg/cm^2. Further, the “An. gambiae RR (resistance ratio)” value in series [3] (24 h LD50 resistant strain (AKDR)/24 h LD50 susceptible strain (G3)) was 0.8. Besides, in series [3] (topical application, 24 h mortality, female adults, pyrethroid-resistant Akdr strain), the “An. gambiae AKDR LD50” value is on record as 6.7 ng/mg. For the same molecule, the “24 h LC50, μg/cm^2 (RR)” value in [4] was found to be 22 μg/cm^2. Moreover, the “1 h % Repellency, 100 μg/cm^2” value in series [5] is given as 34%. Besides, in [6] (topical application, 24 h mortality, female adults, susceptible Orlando strain), the “Ae. aegypti OR LD50” value was 34 ng/mg. In [7], the mortality at 100 µg/cm2 came to 98%. The “Ae. aegypti RR (resistance ratio)” value in series [8] (24 h LD50 resistant strain (PR)/24 h LD50 susceptible strain (OR)) is 0.9. Besides, the “Ae. aegypti PR LD50” value in [8] (topical application, 24 h mortality, female adults, permethrin-resistant Puerto Rico strain) worked out at 31 ng/mg.

Consider `O=C(Nc1cc(F)c(F)c(F)c1)C(F)(F)C(F)(F)C(F)(F)F` [MTFI-5-3A, 2,2,3,3,4,4,4-heptafluoro-N-(3,4,5-trifluorophenyl)butanamide], for which, in series [2] (24 h, LC50 (OR)), the “24 h LC50, μg/cm^2” value is on record as 13 μg/cm^2. Besides, in series [4], the “24 h LC50, μg/cm^2 (RR)” value came to 11 μg/cm^2. Also, in series [5], the “1 h Repellency EC50, μg/cm^2” value was determined as 2.9 μg/cm^2 and the “1 h % Repellency, 100 μg/cm^2” value is given as 68%. In series [5] (alone, FIG. 3 / FIG. 4), the “repellency EC50, compound alone” value amounted to 2.9 μg/cm^2. Further, in series [7], the mortality at 100 µg/cm2 was 100%. For the same molecule, the “1 h Repellency EC50, μg/cm^2 (RR)” value in series [9] is listed as 4.5 μg/cm^2.

Turning to `C/C=C/C1C(C(=O)OCc2c(F)c(F)c(COC)c(F)c2F)C1(C)C` (centres unmarked) [Metofluthrin, metofluthrin, reference compound], the “24 h LC50, μg/cm^2” value in series [2] (24 h, LC50 (OR)) amounted to 0.84 μg/cm^2. In addition, in series [4], the “24 h LC50, μg/cm^2 (RR)” value stood at 43 μg/cm^2. In addition, the “1 h Repellency EC50, μg/cm^2” value in series [5] was 0.3 μg/cm^2. Also, in series [9], the “1 h Repellency EC50, μg/cm^2 (RR)” value is recorded as 12 μg/cm^2.

As to `CC1(C)[C@H](C=C(Cl)Cl)[C@H]1C(=O)OCc1c(F)c(F)cc(F)c1F` [Transfluthrin, transfluthrin, reference compound], the “24 h LC50, μg/cm^2” value in series [2] (24 h, LC50 (OR)) came to 0.16 μg/cm^2. Moreover, the “24 h LC50, μg/cm^2 (RR)” value in series [4] amounted to 7.6 μg/cm^2. In addition, the “1 h Repellency EC50, μg/cm^2” value in series [5] was determined as 0.5 μg/cm^2. Also, the “1 h Repellency EC50, μg/cm^2 (RR)” value in series [9] is 2.3 μg/cm^2.

Molecule `O=C(CCl)Nc1cccc(O)c1` [compound 2] displayed a 1h % repellency in [5] (Table 3B) of 36%. In addition, the σmeta in series [10] was 0.12.

Molecule `O=C(CCl)Nc1cccc(F)c1` [compound 3] yielded a 1h % repellency in series [5] (Table 3B) of 6%. Moreover, in series [10], the σmeta is 0.337.

`O=C(CCl)Nc1cccc(C(F)(F)F)c1` [compound 4]: the 24h % mortality in series [2] (Table 3B) was 3.13%. The same molecule came in with a 1h % repellency in series [5] (Table 3B) of 50%. Also, the σmeta in [10] is listed as 0.52.

A word on the LD50: it is the dose at which mortality reaches 50%. In [11], `O=C(Nc1c(Cl)cc(C(F)(F)F)cc1Cl)C(F)(F)C(F)(F)F` [compound 41] showed a median lethal dose (LD50) at 24 h of 200 mg/kg. Besides, in series [2] (Table 3A), the “24 h LC50, μg/cm^2” value amounted to 0.27 μg/cm^2 and the 24h % mortality came to 100%. In [5] (Table 3A), the “1h EC50 (μg/cm^2)” value turned out to be 5.30 μg/cm^2 and the 1h % repellency stood at 66%.

Take `O=C(Nc1cc(F)c(F)c(F)c1)C(F)(F)C(F)(F)C(F)(F)F` [compound 52]: the median lethal dose (LD50) at 24 h in series [11] was more than 2000 mg/kg. In [2] (Table 3A), the “24 h LC50, μg/cm^2” value is 13.30 μg/cm^2 and the 24h % mortality came out at 100%. Besides, in series [5] (Table 3A), the “1h EC50 (μg/cm^2)” value was determined as 2.92 μg/cm^2 and the 1h % repellency was 68%.

In [11], `O=C(Nc1c(Cl)cccc1Cl)C(F)(F)C(F)(F)F` [compound 53] gave an LD50 at 24 h of more than 2000 mg/kg. Moreover, in series [2] (Table 3A), the “24 h LC50, μg/cm^2” value came out at 7.60 μg/cm^2 and the 24h % mortality amounted to 100%. Also, in series [5] (Table 3A), the “1h EC50 (μg/cm^2)” value came out at 8.90 μg/cm^2.

For the molecule `O=C(Nc1cc(Cl)nc(Cl)c1)C(F)(F)C(F)(F)OC(F)(F)F` [compound 54], the “Mouse LD50” value in the series on Mice (inbred strain ICR) is recorded as more than 2000 ng/mg. Further, in series [1] (Table 5, topical, 24 h), the “An. gambiae G3 LD50” value stood at 6.04 ng/mg. The “An. gambiae AKDR LD50” value in series [3] (Table 5, topical, 24 h) was 11.00 ng/mg. For the same molecule, the “Ae. aegypti OR LD50” value in [6] (Table 5, topical, 24 h) amounted to 17.80 ng/mg.

In the case of `O=C(Nc1cc(Cl)nc(Cl)c1)C(F)(C(F)(F)F)C(F)(F)F` [compound 55], in the series with Mice (inbred strain ICR), the “Mouse LD50” value was approximately 50 ng/mg. For the same molecule, the “An. gambiae G3 LD50” value in [1] (Table 5, topical, 24 h) stood at 5.80 ng/mg. In series [3] (Table 5, topical, 24 h), the “An. gambiae AKDR LD50” value is on record as 2.70 ng/mg. The “Ae. aegypti OR LD50” value in series [6] (Table 5, topical, 24 h) worked out at 17.20 ng/mg. The “Ae. aegypti LD50” value in [8] (Table 5, topical, 24 h, strain not given, line below OR) is given as 7.10 ng/mg.

Regarding `O=C(Nc1cc(Cl)nc(C(F)(F)F)c1)C(F)(F)C(F)(F)OC(F)(F)F` [compound 57], in the series on Mice (inbred strain ICR), the “Mouse LD50” value is listed as more than 200 ng/mg. In addition, in [1] (Table 5, topical, 24 h), the “An. gambiae G3 LD50” value is on record as 13.70 ng/mg. In addition, the “An. gambiae AKDR LD50” value in series [3] (Table 5, topical, 24 h) amounted to 3.60 ng/mg. Moreover, the “Ae. aegypti OR LD50” value in series [6] (Table 5, topical, 24 h) is recorded as 14.90 ng/mg.
